According to the supplement of paper PMC10307832:

Columns and labels:
Assay in all cases: relative viability (nuclei count vs DMSO), 5 days (fraction); higher = more cells survive
[1] = compound: C1COCCN1CC2=CC(=O)C(=CO2)OCCCCCSC3=C4C=CC(=CC4=NC=C3)C(F)(F)F [EHT 1864] + CCNC(=O)c1noc(-c2cc(C(C)C)c(O)cc2O)c1-c1ccc(CN2CCOCC2)cc1 [Luminespib] (partner 0.01 µM)
Summary of the method: (§1)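 Relative viability equals treated-well nuclei counts divided by vehicle-well nuclei counts. Counts came from 4× images of lung cancer cell lines grown in 1536-well plates for 5 days after pin-tool dosing on the day after seeding. Dosing used one drug alone or a fixed anchor-drug dose plus five library-drug doses (not always all listed) in √10 steps, and values are medians of duplicate plates.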

[2] = compound: C1COCCN1CC2=CC(=O)C(=CO2)OCCCCCSC3=C4C=CC(=CC4=NC=C3)C(F)(F)F [EHT 1864] + CC(C)C[C@H](NC(=O)[C@H](Cc1ccccc1)NC(=O)c1cnccn1)B(O)O [Bortezomib] (partner 0.002 µM)
Summary of the method: as §1

[3] = compound: C1COCCN1CC2=CC(=O)C(=CO2)OCCCCCSC3=C4C=CC(=CC4=NC=C3)C(F)(F)F [EHT 1864] + Cc1nc(Nc2ncc(C(=O)Nc3c(C)cccc3Cl)s2)cc(N2CCN(CCO)CC2)n1 [Dasatinib] (partner 0.075 µM)
Summary of the method: as §1

[4] = compound: C1COCCN1CC2=CC(=O)C(=CO2)OCCCCCSC3=C4C=CC(=CC4=NC=C3)C(F)(F)F [EHT 1864] + CC(=O)c1c(C)c2cnc(Nc3ccc(N4CCNCC4)cn3)nc2n(C2CCCC2)c1=O [Palbociclib] (partner 0.5 µM)
Summary of the method: as §1

| Cell Line | relative viability ([1]; first compound 0.04 µM) | relative viability ([1]; first compound 0.1265 µM) | relative viability ([1]; first compound 0.4 µM) | relative viability ([1]; first compound 1.265 µM) | relative viability ([1]; first compound 4 µM) | relative viability ([2]; first compound 0.04 µM) | relative viability ([2]; first compound 0.1265 µM) | relative viability ([2]; first compound 0.4 µM) | relative viability ([2]; first compound 1.265 µM) | relative viability ([2]; first compound 4 µM) | relative viability ([3]; first compound 0.04 µM) | relative viability ([3]; first compound 0.1265 µM) | relative viability ([3]; first compound 0.4 µM) | relative viability ([3]; first compound 1.265 µM) | relative viability ([3]; first compound 4 µM) | relative viability ([4]; first compound 0.04 µM) | relative viability ([4]; first compound 0.4 µM) | relative viability ([4]; first compound 1.265 µM) | relative viability ([4]; first compound 4 µM) | relative viability ([4]; first compound 0.1265 µM) |
| --- | --- | --- | --- | --- | --- | --- | --- | --- | --- | --- | --- | --- | --- | --- | --- | --- | --- | --- | --- | --- |
| SW 1573 | 0.24 | 0.356 | 0.31 | 0.215 | 0.187 | 1.09 | 0.923 | 1.01 | 0.975 | 0.674 | 0.516 | 0.362 | 0.445 | 0.538 | 0.516 | 0.299 | 0.481 | 0.416 | 0.317 | – |
| NCI-H2347 | 0.859 | 0.47 | 0.401 | – | 0.745 | 1.24 | – | 1.13 | 0.894 | 0.995 | 0.358 | 0.251 | 0.308 | – | 0.332 | 0.428 | 0.368 | 0.439 | 0.364 | 0.382 |
| LCLC-97TM1 | 0.701 | 0.517 | 0.772 | 0.718 | 0.784 | 0.754 | 0.53 | 0.75 | 0.401 | 0.7 | 0.888 | 0.748 | 0.828 | 0.727 | 0.8 | 0.225 | 0.183 | 0.187 | 0.241 | 0.15 |
| EMC-BAC-2 | 1.12 | 1.09 | 1.16 | 1.12 | 1.05 | 1.07 | 0.891 | 1.06 | 0.951 | 1.23 | 0.359 | 0.342 | 0.338 | 0.276 | 0.325 | 0.528 | 0.52 | 0.492 | 0.518 | 0.491 |
| NCI-H1975 | 0.143 | 0.284 | 0.201 | 0.155 | 0.199 | 0.343 | 0.395 | 0.376 | 0.32 | 0.369 | 0.361 | 0.292 | 0.426 | – | 0.331 | 0.641 | 0.4 | 0.348 | 0.552 | 0.647 |
| BEN | 0.264 | 0.17 | 0.527 | 0.333 | 0.533 | 0.8 | 0.719 | 0.64 | 0.549 | 0.624 | 0.384 | 0.279 | 0.377 | 0.308 | 0.36 | 0.468 | 0.472 | 0.435 | 0.47 | 0.493 |
| NCI-H23 | 0.194 | – | 0.242 | 0.193 | 0.204 | 0.879 | – | 0.84 | 0.995 | 0.924 | 0.741 | 0.536 | 0.522 | 0.481 | 0.779 | 0.559 | 0.531 | 0.546 | 0.492 | 0.429 |
| NCI-H520 | 0.221 | 0.227 | 0.219 | 0.193 | 0.234 | 0.685 | 0.339 | 0.629 | 0.773 | 0.323 | 0.218 | 0.171 | 0.205 | 0.211 | 0.192 | 0.227 | 0.258 | 0.225 | 0.231 | 0.212 |
| CAL-12T | 0.563 | 0.178 | 0.366 | 0.373 | 0.46 | 1.03 | 0.815 | 0.928 | 0.965 | 0.981 | 0.54 | 0.38 | 0.409 | 0.353 | 0.483 | 0.409 | 0.459 | 0.518 | 0.443 | 0.357 |
| EPLC-272H | 0.347 | 0.365 | 0.266 | 0.521 | 0.606 | 0.774 | 0.63 | 0.839 | 0.823 | 0.977 | 0.359 | 0.327 | 0.395 | 0.452 | 0.275 | 0.356 | 0.317 | 0.33 | 0.352 | 0.353 |
| LCLC-103H | 0.874 | 0.798 | 0.932 | 0.975 | 0.919 | 1.18 | 1.01 | 1.14 | 1.06 | 1.02 | 0.409 | 0.399 | 0.373 | 0.431 | 0.505 | 0.506 | 0.504 | 0.467 | 0.498 | 0.393 |
| NCI-H2405 | 0.745 | 0.667 | 0.703 | 0.581 | 0.603 | 1.05 | 0.945 | 0.84 | 0.76 | 1.02 | 0.205 | 0.196 | 0.241 | 0.227 | 0.234 | 0.536 | 0.469 | 0.5 | 0.538 | 0.497 |
| HCC-15 | 0.451 | – | 0.24 | 0.369 | 0.251 | 0.955 | 0.808 | 1.04 | 0.867 | 1.05 | 0.56 | – | 0.623 | 0.618 | 0.543 | 0.76 | 0.78 | 0.682 | 0.72 | – |
| PC-3 [JPC-3] | 0.742 | 0.695 | 0.664 | 0.673 | 0.696 | 0.83 | 0.737 | 0.895 | 0.853 | 0.763 | 1.05 | 0.901 | 0.996 | 1.02 | 0.896 | 0.549 | 0.539 | 0.545 | 0.57 | 0.554 |
| HARA | 0.738 | 0.68 | 0.75 | 0.644 | 0.719 | 1.12 | 1.11 | 1.2 | 1.12 | 0.999 | 0.236 | 0.246 | 0.207 | 0.19 | 0.255 | 0.269 | 0.215 | 0.26 | 0.291 | 0.226 |
| NCI-H2126 | 0.796 | 0.902 | 0.906 | 0.879 | 0.866 | 1.16 | 1.1 | 1.11 | 1.09 | 1 | 0.604 | 0.574 | 0.649 | 0.484 | 0.545 | 0.338 | 0.333 | 0.336 | 0.349 | 0.365 |
